Assay: solvent given as SMILES

CC1CCCC1
Conditions	solvation free energy, 298 K [kcal/mol]
in CC1CCS(=O)(=O)C1	-2.51
in CC#N	-2.8
in CCCCCCCCCC	-3.93
in CCCCCCCO	-3.51
in CCCCCO	-3.51
in CN1CCCC1=O	-2.99
in CN1CCCCC1=O	-3.16
in CN(C)C=O	-3
in CNC=O	-2.67
in COCCO	-2.99
in CS(C)=O	-2.47
in O	1.6
in O=CN1CCOCC1	-2.47
in OC1CCCCC1	-3.44
in OCCOCCO	-1.85
in OCCS	-2.33
in OCc1ccccc1	-3.01

c1nc[nH]n1
Conditions	solvation free energy, 298 K [kcal/mol]
in COC(C)=O	-10.3
in O	-11.6

CCCCC(=O)O
Conditions	solvation free energy, 298 K [kcal/mol]
in O	-6.13

CCOC(=O)CCC(=O)OCC
Conditions	solvation free energy, 298 K [kcal/mol]
in O	-5.71

O=[N+]([O-])c1ccc(Cl)cc1
Conditions	solvation free energy, 298 K [kcal/mol]
in O	-5.05

CC(C)CCCCOC(=O)c1ccccc1C(=O)OCCCCC(C)C
Conditions	solvation free energy, 298 K [kcal/mol]
in O	-6.55

Clc1ccc(Cl)cc1
Conditions	solvation free energy, 298 K [kcal/mol]
in CCCCCC	-6.06
in CCCCCCC	-5.81
in CCCCCCCCC=CCCCCCCCC(=O)OCC(COC(=O)CCCCCCCC=CCCCCCCCC)OC(=O)CCCCCCCC=CCCCCCCCC	-6.7
in O	-1.01

Cc1ccccc1N
Conditions	solvation free energy, 298 K [kcal/mol]
in CC(C)CC(C)(C)C	-6.37
in CCCCCC	-6.13
in CCCCCCC	-6.22
in CCCCCCCC	-6.34
in CCCCCCCCCC	-6.64
in Cc1cccc(C)c1	-7.32
in Cc1ccccc1C	-7.39
in O	-5.55

CCCCC(=O)OC
Conditions	solvation free energy, 298 K [kcal/mol]
in CCCCCC	-4.93
in CCCCCCC	-4.91
in CCCCCCCC	-4.85
in CCCCCCCCCC	-4.75
in CO	-5.33
in O	-2.56

Nc1ccc2ccccc2c1
Conditions	solvation free energy, 298 K [kcal/mol]
in CCCCCC	-8.89
in CCCCCCCC	-8.96
in O	-7.47

CC(C)O
Conditions	solvation free energy, 298 K [kcal/mol]
in C1CCOC1	-4.75
in C1COCCO1	-4.37
in CC#N	-4.42
in CC(=O)CC(C)=O	-4.41
in CC(=O)N(C)C	-5.29
in CC(C)(C)O	-5.02
in CC(C)CC(C)(C)C	-2.9
in CC(C)CCCC(C)CCCC(C)CCCCC(C)CCCC(C)CCCC(C)C	-2.29
in CC(Cl)(Cl)Cl	-4.07
in CCC(C)=O	-4.54
in CCCC(C)O	-4.85
in CCCCCC	-2.76
in CCCCCCC	-2.71
in CCCCCCCCCCCCCCCC	-2.37
in CCCCCCCCCCO	-4.49
in CCCCCCCCO	-4.61
in CCCCCO	-4.99
in CCCCN(C=O)CCCC	-4.71
in CCCCO	-5.02
in CCCO	-5.07
in CCCOCCC	-3.74
in CCN(CC)C(C)=O	-5.2
in CCNC(C)=O	-5.09
in CCNC=O	-5.03
in CCO	-5.27
in CCOC(=O)c1ccccc1C(=O)OCC	-3.75
in CCOC(C)=O	-4.13
in CCOCCO	-4.87
in CCOP(=O)(OCC)OCC	-4.97
in CN1CCCC1=O	-5.12
in CN1CCN(C)C1=O	-5.1
in CNC(C)=O	-5.12
in CO	-5.53
in COC(C)(C)C	-4.22
in COC(C)=O	-4.46
in Cc1ccc(C)cc1	-3.39
in Cc1cccc(C)c1	-3.33
in O	-4.76
in O=CN1CCOCC1	-4.53
in OCCOCCO	-4.77
in [2H]O[2H]	-4.86

O=C(c1ccccc1[N+](=O)[O-])N(O)c1ccccc1
Conditions	solvation free energy, 298 K [kcal/mol]
in O	-14.5

CC1(C)C2=CCCC(C)(C)C23CCC1C3 (configuration not stated)
Conditions	solvation free energy, 298 K [kcal/mol]
in O	0.71

CN1C2CCC1CC(OC(=O)C(O)c1ccccc1)C2 (configuration not stated)
Conditions	solvation free energy, 298 K [kcal/mol]
in O	-13.8

O=C(c1ccccc1)C(O)c1ccccc1 (configuration not stated)
Conditions	solvation free energy, 298 K [kcal/mol]
in C1COCCO1	-16.5
in CC(C)(C)O	-14.6
in CC(C)CCO	-14.6
in CC(C)CO	-14.6
in CC(C)O	-14.6
in CCC(C)O	-14.6
in CCCC(C)O	-14.5
in CCCCCCCCCCO	-14.5
in CCCCCCCCO	-14.6
in CCCCCCCO	-14.6
in CCCCCCO	-14.6
in CCCCCO	-14.7
in CCCCO	-14.7
in CCCCOC(C)=O	-15.4
in CCCCOCCCC	-14.2
in CCCO	-14.9
in CCO	-15
in CCOC(C)=O	-15.7
in CCc1ccccc1	-14.9
in COC(C)(C)C	-14.8
in COC(C)=O	-15.9
in Cc1ccc(C)cc1	-15
in Cc1ccccc1	-15.2
in Cc1ccccc1C	-15.1
in ClC(Cl)(Cl)Cl	-14.4
in ClC(Cl)Cl	-16.2
in ClCCCl	-16.1
in O	-11.9
in c1ccccc1	-15.6

COC(=O)C1CCCCC1
Conditions	solvation free energy, 298 K [kcal/mol]
in O	-3.3

C=CC(C)=CCC=C(C)C
Conditions	solvation free energy, 298 K [kcal/mol]
in O	-0.5

CC1=CCC(C(C)C)C=C1 (configuration not stated)
Conditions	solvation free energy, 298 K [kcal/mol]
in O	0.2

C=C1CCC2C(C)CCC3C(C12)C3(C)C (configuration not stated)
Conditions	solvation free energy, 298 K [kcal/mol]
in O	0.42

CCCC(C)CO (configuration not stated)
Conditions	solvation free energy, 298 K [kcal/mol]
in CCCCCCCC	-4.89
in CCCCCCCCCC	-4.82

CC(C)(C)Br
Conditions	solvation free energy, 298 K [kcal/mol]
in Brc1ccccc1	-3.89
in C1CCOC1	-3.87
in C1COCCO1	-3.81
in C=CCCCCCCCCCCCCCC	-3.56
in CC(=O)N(C)C	-3.52
in CC(C)(C)O	-3.36
in CC(C)=O	-3.86
in CC(C)O	-3.23
in CCCCCC	-3.75
in CCCCO	-3.3
in CCCO	-3.19
in CCOC(C)=O	-4.05
in CCOCC	-3.85
in CN1CCCC1=O	-3.44
in CN(C)C=O	-3.59
in ClC(Cl)(Cl)Cl	-4.13
in ClCCCl	-4.02
in Clc1ccccc1	-3.93
in N#Cc1ccccc1	-3.64
in O	0.85

COC(CC#N)(OC)OC
Conditions	solvation free energy, 298 K [kcal/mol]
in O	-6.4

CCCCN
Conditions	solvation free energy, 298 K [kcal/mol]
in C1COCCO1	-4.48
in CCCCCCCC	-3.44
in CCCCCCCCCC	-3.4
in CCCCCCCCCCCCCCCC	-3.5
in CCCCOCCCC	-3.66
in O	-4.23

CCC(=O)CC(=O)CC
Conditions	solvation free energy, 298 K [kcal/mol]
in O	-4.71

CCCCCCCCCCCCCCCCCC
Conditions	solvation free energy, 298 K [kcal/mol]
in CC(=O)N(C)C	-12.1
in CCCCCCCCC=CCCCCCCCC(=O)OCC(COC(=O)CCCCCCCC=CCCCCCCCC)OC(=O)CCCCCCCC=CCCCCCCCC	-12.4
in CCCCOC(C)=O	-11.9
in CCO	-10.3
in O	4.15

CCCCCCCCOC(=O)c1ccccc1C(=O)OCCCC
Conditions	solvation free energy, 298 K [kcal/mol]
in O	-6.83

From the CombiSolv-Exp solvation set (Vermeire and Green 2021)
